# What was measured:
# A. matricariae = assay: Residual contact test on adults (Table 4); format: in vivo, Aphidinus matricariae, adult females
# Method: Adults of A. matricariae are exposed to residues of the active ingredients freshly applied on glass plates forming cages then the survivors are counted.
# Treatments: test products(s) and control treated with water.
# Replicates: at least 3. Plot size (net) 1 cage.
# Parasites of known age 24 hours are used.
# The products are applied at 5-1 ppm concentration, to each of the glass plates.
# 10 females of A. matricariae are introduced into each cage and supplied with honey as food. The number of females surviving exposure is determined after 1.5 and 24 hours, in independent runs. Total number of survivors is calculated for each cage.
# Lucilia sericata = assay: Impregnated filter paper disc contact test, mortality (Table 1); format: in vivo, sheep maggot fly (Lucilia sericata), imago; conditions: for mortality at 20 µg/disc / mortality at 70 µg/disc / mortality at 220 µg/disc / mortality at 670 µg/disc / mortality at 2000 µg/disc / mortality at 6000 µg/disc: Lucilia sericata, 24 hours, Abbot corrected; for mortality at 20 µg/disc: 0.02 mg/disc; for mortality at 70 µg/disc: 0.07 mg/disc; for mortality at 220 µg/disc: 0.22 mg/disc; for mortality at 670 µg/disc: 0.67 mg/disc; for mortality at 2000 µg/disc: 2.0 mg/disc; for mortality at 6000 µg/disc: 6.0 mg/disc
# Method: (§1) The stereoisomers are dissolved in a 1:2 mixture of mineral oil and acetone and filter paper discs (Whatman No. 1., diameter 9 cm) are impregnated with the corresponding dosage of the solution of the active ingredient. The acetone is allowed to evaporate and the insects are examined on filter paper discs placed into Petri-dishes. Three parallels are used for each dose and 15 animals are placed in each Petri-dish. Mortality rate is determined after 24 hours. The corrected mortality % data are calculated by means of the Abbot formula.
# Aphidinus matricariae = assay: Residual contact test on adults (Table 25); format: in vivo, adult females
# Method: Residual contact test on adults of Aphidinus matricariae. Adults of A. matricariae are exposed to residues of the active ingredients freshly applied on glass plates forming cages, then the survivors are counted.
# Treatment: test product and control treated with water.
# Replicates: at least 3. Plot size (net): 1 cage.
# Parasites of known age (24 hours) are used. […]
# 10 females of A. matricariae are introduced into each cage and supplied with honey as food. The number of females surviving exposure is determined after 1, 5 and 24 hours, in independent runs. Total number of survivors is calculate for each cage.
# Colorado potato beetle = assay: Plot field test on Colorado potato beetle (Table 24); format: in vivo, adults; conditions: 10 g active ingredients/ha
# Method: The treatments are performed on a 25 m^2 plot strongly infected with Colorado potato beetle. 10 plants per plot are specially marked on which the Colorado potato beetles were counted previously. (During assessment of the number of pests only adults of the second Summer generation are taken into consideration, because at the point of time of the test the ratio of larvae of stages L3 and L4 is negligible). Treatment is accomplished on 25 M^2 plots at a dose of 10 g of active ingredients/ha with aqueous suspensions of the formulations according to Example 37 and three parallels are used. The test is evaluated by counting the leave insects on the marked plants. The average values of three parallel tests are disclosed in Table 24.
# T. confusum = assay: Contact test with piperonyl butoxide (Table 17); format: in vivo, flour-beetle (T. confusum), imagos; conditions: for mortality at 25 µg/disc / mortality at 50 µg/disc / mortality at 100 µg/disc / mortality at 200 µg/disc / mortality at 400 µg/disc: Tribolium confusum, 24 h, PBO, where added, 0.5 mg/disc; for mortality at 25 µg/disc: 0.025 mg/disc; for mortality at 50 µg/disc: 0.05 mg/disc; for mortality at 100 µg/disc: 0.1 mg/disc; for mortality at 200 µg/disc: 0.2 mg/disc; for mortality at 400 µg/disc: 0.4 mg/disc
# Method: The active ingredient is dissolved in a 1:2 mixture of oil and acetone; filter paper discs (Whatman No. 1, diameter 9 cm) are impregnated with the solutions of the corresponding stereoisomers and enantiomer-pairs, respectively. The acetone is allowed to evaporate, whereupon the insects are exposed to filter papers discs placed in Petri-dishes. Three parallels are used on each dose and 15 insects are placed into each Petri-dish. The percental mortality is determined after 24 hours. The corrected percent mortality is calculated by means of the Abbot Formula.
# Imagos of flour-beetle (T. confusum) are treated in an analogous manner to Example 41. As synergist piperonyl butoxide is used in a dose of 0.5 mg/disc.
# L. decemlineata = assay: 5 EC formulations sprayed on glass plates (Table 20); format: in vivo, imagos; conditions: 5 EC formulation, 48 hours
# Method: The 5 EC formulations prepared according to Example 42 are diluted 50x, 100x, 200x, 400x, 800x and 1600x with water and 0.5 ml doses are sprayed onto glass plates. After drying 10 L. decemlineata imagos are placed on each glass plate and the insects are covered with Petri-dishes. The tests are carried out by using 6 doses and 3 parallels for each dose. The killed insects are counted after 48 hours.
# tribolium confusum = assay: Impregnated filter paper disc contact test, mortality (Table 1); format: in vivo, flour-beetle (tribolium confusum), imago; conditions: for mortality at 20 µg/disc / mortality at 70 µg/disc / mortality at 220 µg/disc / mortality at 670 µg/disc / mortality at 2000 µg/disc / mortality at 6000 µg/disc: Tribolium confusum, 24 hours, Abbot corrected; for mortality at 20 µg/disc: 0.02 mg/disc; for mortality at 70 µg/disc: 0.07 mg/disc; for mortality at 220 µg/disc: 0.22 mg/disc; for mortality at 670 µg/disc: 0.67 mg/disc; for mortality at 2000 µg/disc: 2.0 mg/disc; for mortality at 6000 µg/disc: 6.0 mg/disc
# Method: as §1
# Myzus persicae = assay: 5 EC formulations on aphid-infected bean plants (Table 22); format: in vivo, green peach aphids (Myzus persicae)
# Method: 15 bean plants infected with green peach aphids (Myzus persicae) at 6 days' age are cultivated in each pot. At 12 days' age the strongly and uniformly infected plants are selected and sprayed to run-off with emulsions freshly prepared from the formulation according to Example 42. Treatments are carried out with three doses (active ingredient 2.5, 5 and 10 ppm) and four parallels are used (one pot per parallel). The second, fourth and eighth day after treatment the aphids are swept down from the plants to a white paper with a fine brush and the live insects are counted.
# [1] = Acute toxicity on rats and selectivity index; conditions: rat, in vivo; for LD50: po, rats, p.o., read-out: approximate LD50 toxicity; for selectivity ratio: quotient of approximate LD50 values on rats and house fly
# From the text: The said selectivity index of the enantiomer-pair Ia amounts to 50/0.45=111.
# In addition to the synergistic effect the composition of the present invention has a number of further advantages too and for this reason it is an outstanding product. It is very important that the compositions of the present invention are less toxical towards mammals than the hitherto known compositions of similar efficiency. […] The said selectivity index of Ia amounts to 50/0.45=111.
# [2] = 0 days after treatment (control 211)
# [3] = 1 day after treatment (control 206)
# [4] = 3 days after treatment (control 179)
# [5] = 9 days after treatment (control 183)
# [6] = 2.5 ppm, 2 days after treatment (control 1850)
# [7] = 2.5 ppm, 4 days after treatment (control 2780)
# [8] = 2.5 ppm, 8 days after treatment (control 4120)
# [9] = 5.0 ppm, 2 days after treatment (control 1850)
# [10] = 5.0 ppm, 4 days after treatment (control 2780)
# [11] = 5.0 ppm, 8 days after treatment (control 4120)
# [12] = 10.0 ppm, 2 days after treatment (control 1850)
# [13] = 10.0 ppm, 4 days after treatment (control 2780)
# [14] = 10.0 ppm, 8 days after treatment (control 4120)
smiles,measurement,setting,value
CC1(C)[C@H](C(=O)O[C@H](C#N)c2cccc(Oc3ccccc3)c2)[C@@H]1C=C(Cl)Cl (relative stereo) [Ia],Mortality %,"A. matricariae; 1 ppm, 1h",100%
same,Mortality %,"A. matricariae; 1 ppm, 5h",100%
same,Mortality %,"A. matricariae; 1 ppm, 24h",96%
same,Mortality %,"A. matricariae; 5 ppm, 1h",100%
same,mortality at 20 µg/disc,Lucilia sericata,0%
same,mortality at 70 µg/disc,Lucilia sericata,30%
same,mortality at 220 µg/disc,Lucilia sericata,29%
same,mortality at 670 µg/disc,Lucilia sericata,57%
same,mortality at 2000 µg/disc,Lucilia sericata,60%
same,mortality at 6000 µg/disc,Lucilia sericata,65%
same,Mortality %,"Aphidinus matricariae; 1 ppm, 1h",100%
same,Mortality %,"Aphidinus matricariae; 1 ppm, 5h",100%
same,Mortality %,"Aphidinus matricariae; 1 ppm, 24h",96%
same,Mortality %,"Aphidinus matricariae; 5 ppm, 1h",100%
same,Average number of live insects/10 plants,Colorado potato beetle; [2],171
same,Average number of live insects/10 plants,Colorado potato beetle; [3],11
same,Average number of live insects/10 plants,Colorado potato beetle; [4],9
same,Average number of live insects/10 plants,Colorado potato beetle; [5],25
same,mortality at 25 µg/disc,T. confusum,0%
same,mortality at 50 µg/disc,T. confusum,0%
same,mortality at 100 µg/disc,T. confusum,12%
same,mortality at 200 µg/disc,T. confusum,53%
same,mortality at 400 µg/disc,T. confusum,96%
same,Mortality %,L. decemlineata; dilution 50x,97%
same,Mortality %,L. decemlineata; dilution 100x,87%
same,Mortality %,L. decemlineata; dilution 200x,63%
same,Mortality %,L. decemlineata; dilution 400x,53%
same,Mortality %,L. decemlineata; dilution 800x,27%
same,Mortality %,L. decemlineata; dilution 1600x,0%
same,mortality at 20 µg/disc,tribolium confusum,0%
same,mortality at 70 µg/disc,tribolium confusum,18%
same,mortality at 220 µg/disc,tribolium confusum,51%
same,mortality at 670 µg/disc,tribolium confusum,100%
same,mortality at 2000 µg/disc,tribolium confusum,100%
same,mortality at 6000 µg/disc,tribolium confusum,100%
same,Average number of aphids per pot,Myzus persicae; [6],44
same,Average number of aphids per pot,Myzus persicae; [7],83
same,Average number of aphids per pot,Myzus persicae; [8],245
same,Average number of aphids per pot,Myzus persicae; [9],22
same,Average number of aphids per pot,Myzus persicae; [10],29
same,Average number of aphids per pot,Myzus persicae; [11],90
same,Average number of aphids per pot,Myzus persicae; [12],8
same,Average number of aphids per pot,Myzus persicae; [13],17
same,Average number of aphids per pot,Myzus persicae; [14],30
same,LD50,[1],~50 mg/kg
same,selectivity ratio,[1],111
CC1(C)[C@H](C=C(Cl)Cl)[C@H]1C(=O)O[C@H](C#N)c1cccc(Oc2ccccc2)c1 (relative stereo) [Ib],Mortality %,"A. matricariae; 1 ppm, 1h",0%
same,Mortality %,"A. matricariae; 1 ppm, 5h",75%
same,Mortality %,"A. matricariae; 1 ppm, 24h",88%
same,Mortality %,"A. matricariae; 5 ppm, 1h",100%
same,comparative activity,Lucilia sericata; Ib versus Ia,more active than enantiomer-pair Ia
same,mortality at 20 µg/disc,Lucilia sericata,22%
same,mortality at 70 µg/disc,Lucilia sericata,55%
same,mortality at 220 µg/disc,Lucilia sericata,70%
same,mortality at 670 µg/disc,Lucilia sericata,75%
same,mortality at 2000 µg/disc,Lucilia sericata,100%
same,mortality at 6000 µg/disc,Lucilia sericata,100%
same,comparative activity,tribolium confusum; Ib versus Ia,more active than enantiomer-pair Ia
same,mortality at 20 µg/disc,tribolium confusum,14%
same,mortality at 70 µg/disc,tribolium confusum,73%
same,mortality at 220 µg/disc,tribolium confusum,100%
same,mortality at 670 µg/disc,tribolium confusum,100%
same,mortality at 2000 µg/disc,tribolium confusum,100%
same,mortality at 6000 µg/disc,tribolium confusum,100%
same,LD50,[1],~5000 mg/kg
same,selectivity ratio,[1],7800
CC1(C)C(C=C(Cl)Cl)C1C(=O)OC(C#N)c1cccc(Oc2ccccc2)c1 (centres unmarked) [Ia:Ib = 4:6],Mortality %,"Aphidinus matricariae; 1 ppm, 1h",50%
same,Mortality %,"Aphidinus matricariae; 1 ppm, 5h",90%
same,Mortality %,"Aphidinus matricariae; 1 ppm, 24h",63%
same,Mortality %,"Aphidinus matricariae; 5 ppm, 1h",100%
same,Average number of live insects/10 plants,Colorado potato beetle; [2],213
same,Average number of live insects/10 plants,Colorado potato beetle; [3],8
same,Average number of live insects/10 plants,Colorado potato beetle; [4],4
same,Average number of live insects/10 plants,Colorado potato beetle; [5],22
same,synergizability with piperonyl butoxide,T. confusum; Ia:Ib=4:6 mixture versus Ia,can be synergized to a larger extent than enantiomer Ia
same,mortality at 25 µg/disc,T. confusum,0%
same,mortality at 50 µg/disc,T. confusum,18%
same,mortality at 100 µg/disc,T. confusum,57%
same,mortality at 200 µg/disc,T. confusum,90%
same,mortality at 400 µg/disc,T. confusum,100%
same,Mortality %,"L. decemlineata; dilution 50x, 2880 min",93%
same,Mortality %,"L. decemlineata; dilution 100x, 2880 min",80%
same,Mortality %,"L. decemlineata; dilution 200x, 2880 min",73%
same,Mortality %,"L. decemlineata; dilution 400x, 2880 min",53%
same,Mortality %,"L. decemlineata; dilution 800x, 2880 min",33%
same,Mortality %,L. decemlineata; dilution 1600x,0%
same,Average number of aphids per pot,Myzus persicae; [6],38
same,Average number of aphids per pot,Myzus persicae; [7],71
same,Average number of aphids per pot,Myzus persicae; [8],251
same,Average number of aphids per pot,Myzus persicae; [9],21
same,Average number of aphids per pot,Myzus persicae; [10],32
same,Average number of aphids per pot,Myzus persicae; [11],82
same,Average number of aphids per pot,Myzus persicae; [12],10
same,Average number of aphids per pot,Myzus persicae; [13],11
same,Average number of aphids per pot,Myzus persicae; [14],21

# — patent publication US5110976A, “Insecticidal composition comprising more than one active ingredient” (priority 1985, dated 1992)
